Results from patent US10670605B2, “Cysteine reactive probes and uses thereof” (The Scripps Research Institute, priority 2015, dated 2020).

How the values were obtained:
Experiment in all cases: Competitive isoTOP-ABPP in situ (fragment-treated cells)
Assay type in all cases: cell-based
[1] = biological target: T1, cysteines in MDA-MB-231 and Ramos cells (Homo sapiens, UniProt P42224); conditions: 200 μM, insitu, 231
T1 sequence (P42224 1-750): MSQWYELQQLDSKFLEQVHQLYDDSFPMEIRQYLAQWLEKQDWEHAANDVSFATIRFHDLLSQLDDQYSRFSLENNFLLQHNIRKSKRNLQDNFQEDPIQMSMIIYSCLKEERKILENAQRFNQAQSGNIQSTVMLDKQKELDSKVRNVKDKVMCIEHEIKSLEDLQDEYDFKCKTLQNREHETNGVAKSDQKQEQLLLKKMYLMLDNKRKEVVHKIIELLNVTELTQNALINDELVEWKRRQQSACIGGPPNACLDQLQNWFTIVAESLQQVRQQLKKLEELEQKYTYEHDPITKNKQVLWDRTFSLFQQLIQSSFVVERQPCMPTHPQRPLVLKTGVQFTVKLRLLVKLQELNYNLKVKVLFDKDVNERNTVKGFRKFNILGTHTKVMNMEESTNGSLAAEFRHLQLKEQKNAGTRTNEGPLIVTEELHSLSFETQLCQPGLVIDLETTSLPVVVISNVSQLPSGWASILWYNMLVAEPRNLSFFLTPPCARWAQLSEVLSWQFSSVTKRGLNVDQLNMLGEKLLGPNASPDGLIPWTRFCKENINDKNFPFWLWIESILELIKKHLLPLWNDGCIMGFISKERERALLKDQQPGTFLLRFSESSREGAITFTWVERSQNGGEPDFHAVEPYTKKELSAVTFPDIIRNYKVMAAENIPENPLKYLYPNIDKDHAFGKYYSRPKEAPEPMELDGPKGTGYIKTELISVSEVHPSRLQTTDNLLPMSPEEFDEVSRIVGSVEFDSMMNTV

[2] = biological target: T2, cysteines in MDA-MB-231 and Ramos cells (Homo sapiens, UniProt O95336); conditions: 200 μM, insitu
T2 sequence (O95336 1-258): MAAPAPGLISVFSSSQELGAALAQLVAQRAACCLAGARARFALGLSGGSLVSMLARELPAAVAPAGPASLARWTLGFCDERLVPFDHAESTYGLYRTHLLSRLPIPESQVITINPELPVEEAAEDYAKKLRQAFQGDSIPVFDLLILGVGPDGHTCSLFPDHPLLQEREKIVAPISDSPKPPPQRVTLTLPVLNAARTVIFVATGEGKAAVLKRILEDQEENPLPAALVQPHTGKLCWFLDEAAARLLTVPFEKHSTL

[3] = biological target: T3, cysteines in MDA-MB-231 and Ramos cells (Homo sapiens, UniProt Q9Y3A3); conditions: 200 μM, insitu
T3 sequence (Q9Y3A3 1-225): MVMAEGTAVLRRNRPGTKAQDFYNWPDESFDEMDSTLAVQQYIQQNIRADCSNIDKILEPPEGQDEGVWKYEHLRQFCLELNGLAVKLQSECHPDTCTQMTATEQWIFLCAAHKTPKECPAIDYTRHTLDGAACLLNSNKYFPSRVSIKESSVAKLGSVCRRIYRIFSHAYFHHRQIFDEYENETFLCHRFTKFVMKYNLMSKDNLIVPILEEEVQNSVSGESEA

[4] = biological target: T4, cysteines in MDA-MB-231 and Ramos cells (Homo sapiens, UniProt Q96CM8); conditions: 200 μM, insitu, 231
T4 sequence (Q96CM8 42-615): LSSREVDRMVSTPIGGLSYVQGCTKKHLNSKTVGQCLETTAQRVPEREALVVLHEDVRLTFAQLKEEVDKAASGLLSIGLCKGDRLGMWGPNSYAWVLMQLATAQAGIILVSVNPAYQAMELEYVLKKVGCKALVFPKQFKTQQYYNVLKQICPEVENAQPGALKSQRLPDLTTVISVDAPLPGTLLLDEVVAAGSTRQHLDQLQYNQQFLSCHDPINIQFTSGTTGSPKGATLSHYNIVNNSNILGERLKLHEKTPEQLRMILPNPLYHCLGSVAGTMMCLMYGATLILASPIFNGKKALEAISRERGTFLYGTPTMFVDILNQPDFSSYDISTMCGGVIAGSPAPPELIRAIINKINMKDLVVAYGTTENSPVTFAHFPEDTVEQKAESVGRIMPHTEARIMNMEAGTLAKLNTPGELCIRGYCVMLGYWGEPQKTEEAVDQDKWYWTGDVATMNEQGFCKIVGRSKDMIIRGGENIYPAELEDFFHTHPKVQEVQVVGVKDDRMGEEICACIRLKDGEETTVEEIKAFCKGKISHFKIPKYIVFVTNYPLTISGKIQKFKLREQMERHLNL

[5] = biological target: cysteines in MDA-MB-231 and Ramos cells (Homo sapiens, UniProt Q9NYL2); conditions: 200 μM, insitu, 231
Chain of cysteines in MDA-MB-231 and Ramos cells (Homo sapiens, UniProt Q9NYL2) (Q9NYL2 whole entry): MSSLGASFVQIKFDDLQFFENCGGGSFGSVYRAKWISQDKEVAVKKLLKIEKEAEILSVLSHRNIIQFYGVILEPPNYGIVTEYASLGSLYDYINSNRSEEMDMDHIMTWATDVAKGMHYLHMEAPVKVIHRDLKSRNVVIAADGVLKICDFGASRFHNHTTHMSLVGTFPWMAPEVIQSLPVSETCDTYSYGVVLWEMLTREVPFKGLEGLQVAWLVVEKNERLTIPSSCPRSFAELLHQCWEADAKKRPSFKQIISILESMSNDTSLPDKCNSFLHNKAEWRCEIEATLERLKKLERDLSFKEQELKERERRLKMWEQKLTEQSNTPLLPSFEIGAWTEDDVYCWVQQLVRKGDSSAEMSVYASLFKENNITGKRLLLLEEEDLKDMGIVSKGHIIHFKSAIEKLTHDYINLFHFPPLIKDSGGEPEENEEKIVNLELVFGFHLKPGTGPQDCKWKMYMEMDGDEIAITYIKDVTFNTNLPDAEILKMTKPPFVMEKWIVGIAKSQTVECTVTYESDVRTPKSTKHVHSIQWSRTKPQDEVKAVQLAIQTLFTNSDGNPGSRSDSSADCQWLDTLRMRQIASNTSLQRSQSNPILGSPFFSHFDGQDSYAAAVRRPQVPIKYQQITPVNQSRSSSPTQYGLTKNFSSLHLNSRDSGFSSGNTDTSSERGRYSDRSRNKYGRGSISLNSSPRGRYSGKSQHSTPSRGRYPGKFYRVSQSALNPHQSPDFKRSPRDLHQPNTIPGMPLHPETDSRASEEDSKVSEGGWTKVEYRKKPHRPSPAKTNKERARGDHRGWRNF

[6] = biological target: cysteines in MDA-MB-231 and Ramos cells (Homo sapiens, UniProt Q9BUH6); conditions: 200 μM, insitu, 231
Chain of cysteines in MDA-MB-231 and Ramos cells (Homo sapiens, UniProt Q9BUH6) (Q9BUH6 whole entry): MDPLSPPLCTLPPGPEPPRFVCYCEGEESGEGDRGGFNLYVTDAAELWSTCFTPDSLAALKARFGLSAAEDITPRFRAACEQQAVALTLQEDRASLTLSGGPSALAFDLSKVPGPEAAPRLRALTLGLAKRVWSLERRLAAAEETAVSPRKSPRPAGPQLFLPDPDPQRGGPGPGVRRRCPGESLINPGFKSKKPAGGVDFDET

[7] = biological target: cysteines in MDA-MB-231 and Ramos cells (Homo sapiens, UniProt P38606); conditions: 200 μM, insitu, 231
Chain of cysteines in MDA-MB-231 and Ramos cells (Homo sapiens, UniProt P38606) (P38606 whole entry): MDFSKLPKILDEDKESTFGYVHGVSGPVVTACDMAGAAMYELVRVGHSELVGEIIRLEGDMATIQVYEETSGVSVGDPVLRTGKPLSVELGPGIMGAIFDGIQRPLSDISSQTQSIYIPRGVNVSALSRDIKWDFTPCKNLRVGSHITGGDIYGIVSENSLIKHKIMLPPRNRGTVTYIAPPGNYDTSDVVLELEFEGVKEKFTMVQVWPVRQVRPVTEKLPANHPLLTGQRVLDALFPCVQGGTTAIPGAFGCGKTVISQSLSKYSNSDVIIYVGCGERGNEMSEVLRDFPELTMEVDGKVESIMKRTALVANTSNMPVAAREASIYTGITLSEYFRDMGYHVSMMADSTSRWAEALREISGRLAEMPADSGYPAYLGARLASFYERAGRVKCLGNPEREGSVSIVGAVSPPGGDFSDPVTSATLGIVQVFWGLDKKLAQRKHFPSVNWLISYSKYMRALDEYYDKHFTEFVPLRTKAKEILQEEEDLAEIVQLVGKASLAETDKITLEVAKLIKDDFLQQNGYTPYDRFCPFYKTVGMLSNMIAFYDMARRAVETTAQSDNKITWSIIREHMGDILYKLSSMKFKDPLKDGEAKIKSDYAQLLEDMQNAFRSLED

[8] = biological target: T5, cysteines in MDA-MB-231 and Ramos cells (Homo sapiens, UniProt Q96HE7); conditions: 200 μM, insitu
T5 sequence (Q96HE7 24-468): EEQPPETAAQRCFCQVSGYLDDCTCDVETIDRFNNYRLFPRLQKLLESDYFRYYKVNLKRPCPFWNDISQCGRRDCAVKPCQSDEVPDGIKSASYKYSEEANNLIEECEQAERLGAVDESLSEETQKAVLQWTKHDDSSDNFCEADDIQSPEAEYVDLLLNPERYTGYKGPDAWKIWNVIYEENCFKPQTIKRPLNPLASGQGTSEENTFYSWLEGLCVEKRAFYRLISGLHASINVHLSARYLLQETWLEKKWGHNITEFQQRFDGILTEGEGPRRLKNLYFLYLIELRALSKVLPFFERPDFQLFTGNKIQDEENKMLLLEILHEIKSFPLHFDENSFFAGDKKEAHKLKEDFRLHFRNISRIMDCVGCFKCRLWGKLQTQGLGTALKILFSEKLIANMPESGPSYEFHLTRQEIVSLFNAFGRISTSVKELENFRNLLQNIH

[9] = biological target: T6, cysteines in MDA-MB-231 and Ramos cells (Homo sapiens, UniProt Q9NQR4); conditions: 200 μM, insitu
T6 sequence (Q9NQR4 1-276): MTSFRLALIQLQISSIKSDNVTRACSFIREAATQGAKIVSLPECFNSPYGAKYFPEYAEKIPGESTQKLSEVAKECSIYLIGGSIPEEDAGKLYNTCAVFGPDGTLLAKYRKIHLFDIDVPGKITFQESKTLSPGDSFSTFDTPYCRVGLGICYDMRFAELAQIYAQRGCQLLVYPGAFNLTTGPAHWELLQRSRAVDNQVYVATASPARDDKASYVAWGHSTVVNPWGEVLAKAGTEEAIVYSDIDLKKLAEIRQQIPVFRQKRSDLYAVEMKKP

SMILES | isoTOP-ABPP ratio P42224_C492 [1] | isoTOP-ABPP ratio O95336_C32 [2]; 231 | isoTOP-ABPP ratio Q9Y3A3_C134 [3]; 231 | isoTOP-ABPP ratio Q96CM8_C64 [4] | isoTOP-ABPP ratio Q9NYL2_C22 [5] | isoTOP-ABPP ratio Q9BUH6_C180 [6] | isoTOP-ABPP ratio P38606_C138 [7] | isoTOP-ABPP ratio Q96HE7_C241 [8]; 231 | isoTOP-ABPP ratio Q9NQR4_C153 [9]; 231 | isoTOP-ABPP ratio O95336_C32 ([2]; ramos) | isoTOP-ABPP ratio Q9Y3A3_C134 ([3]; ramos) | isoTOP-ABPP ratio Q96HE7_C241 ([8]; ramos) | isoTOP-ABPP ratio, cysteine Q96HE7_C37 ([8]; ramos) | isoTOP-ABPP ratio Q9NQR4_C153 ([9]; ramos)
O=C(CCl)NC(=O)NC12CC3CC(CC(C3)C1)C2 [compound 12] | 1.0 | 20.0 | 1.4 | 17.9 | 0.7 | 1.4 | 20.0 | 16.4 | 0.9 | – | – | – | – | –
O=C(CCl)NCCc1c[nH]c2ccccc12 [compound 13] | 1.0 | 1.6 | – | 1.4 | 1.3 | 1.1 | 20.0 | 1.5 | 6.2 | 2.2 | 1.9 | 1.3 | 1.4 | 12.2
